Tests used:
[1] = test system: embryos; assay: Group embryo culture in 20% oxygen, blastocyst cell numbers by differential staining; assay type: cell-based, mice; details: 20% O2; for optimal dose (dose that resulted in significantly higher cell numbers): single compound
Protocol: F1 virgin hybrid female mice (C57BL/6×CBA) at 3-4 weeks old were intraperitoneally injected with 5 IU of pregnant mare's serum gonadotrophin. 48 hours later 5 IU of human chorulon gonadotrophin was administered and the female mice mated with F1 male mice >12 weeks old. Successful mating was confirmed by the presence of a vaginal mucus plug the following morning. Pronucleate oocytes were collected 22 hours after hCG injection, in pre-warmed handling medium (G-MOPS) supplemented with 5 mg/ml human sera albumin. Cumulus cells were denuded from the oocytes with GMOPS containing 300 IU/ml hyaluronidase. All embryos were washed twice in G-MOPS media and once in G-1™ medium prior to allocation for culture. Animals were housed in 12 hour light-day photoperiod with food and water available ad libitum.
Embryos were cultured in groups of 10 in 20 ul drops of media under paraffin oil in 6% CO2 in air (atmospheric oxygen ˜20%) or at 6% CO2 5% oxygen at 37° C. in a humidified multi gas incubator (Sanyo MCOK-5M[RC], Japan). Embryos were cultured in G-1™ medium (G-1™ with HSA-Solution™, Vitrolife) for 48 hours and then for a further 48 hours in G-2™ medium (G-2™ with HSA-Solution™, Vitrolife). […] All cultures were performed in 35 mm petri dishes (Falcon, BD Biosciences).
Differential staining of embryos was performed by techniques commonly known in the art to determine the allocation of cells to the inner cell mass (ICM) and trophectoderm (TE) on day 5 (e.g. in the blastocyst). Briefly, after zona removal using pronase, embryos were treated with a complement reaction which labels the in TE nuclei with propidium iodide and leaves the ICM intact and unlabelled. Following bisbenzimide treatment, all nuclei were stained. Embryos were whole-mounted in glycerol and imaged using an inverted fluorescence microscope (Nikon Eclipse TS100) fitted with a digital camera (Nikon digital sight DS-Fi1) and nuclei counted using imaging software ImageJ.
Embryos cultured in control groups were grown in G-™1 and G-2™ medium supplemented with HSA 5 mg/ml (HSA, Vitrolife). Embryos in treatment groups were similarly cultured with Acetyl Carnitine, Acetyl Cysteine or α-Lipoic acid Sigma Aldrich, USA) supplemented in the G-1™ and G-2™ medium at doses of 1, 10 and 100 μM and supplemented with HSA as the control group. […] The “total mean” means the average total number of cells in the embryo (including inner cell mass and trophectoderm) at day 5.
Embryos cultured in control groups were grown in G-1™ and G-2™ medium supplemented with HSA-Solution™ 5 mg/ml. Embryos in treatment groups were similarly cultured with 10 μM Acetyl Carnitine-10 μM Acetyl Cysteine, 10 μM Acetyl Carnitine-5 μM Lipoic acid, 10 μM Acetyl Cysteine-5 μM Lipoic acid, the triple cocktail of 10 μM Acetyl Carnitine-10 μM Acetyl Cysteine 5 μM Lipoic acid supplemented in the G-1™ and G-2™ medium and supplemented with HSA.

[2] = test system: glutathione (GSH); assay: BSO/MCB probe dosage optimisation and verification of MCB specificity to glutathione; assay type: cell-based, mice
Protocol: Embryos were cultured in groups of 10 in 20 ul drops of media under paraffin oil (Ovoil, Vitrolife) in 6% CO2, 20% O2 74% N2 at 37° C. in a humidified multi gas incubator (Sanyo MCOK-5M[RC], Japan). Half of the embryos were allocated to the control group and the other half to the treatment group. Control group embryos were cultured in G-1™ medium (G-1™ with HSA-Solution™, Vitrolife) […]. Treatment group embryos were likewise cultured with the optimal triple antioxidant dose supplemented in the G-1™ medium (as determined in Example 2).
Immediately after collection, pronucleate control embryos were incubated in G-1™ medium spiked with BSO at doses of 0, 50, 100, 200, 400, 800, 1600 μM for 4 hours at 6% CO2, 20% O2 74% N2 at 37° C. Embryos were rinsed thoroughly in G-1™ with HSA-Solution™ media and placed individually in 2 μl drops of GMOPS with HSA-Solution™ (G-MOPS™ Plus, Vitrolife AB, Sweden) made on glass bottom dishes (Fluorodish, Coherent Scientific, Australia) and overlayed with paraffin oil (Ovoil, Vitrolife) for fluorescence imaging. Optimal dosage was determined by recording the fluorescence at 360±40 nm/460±40 nm excitation/emission wavelengths under a fluorescence microscope (Nikon Eclipse TS100). Results were calculated by subtracting the values of blank (embryos with no BSO exposure) and basal levels of the culture media from the fluorescence recorded. […]

Compound | Total Mean (average total number of cells in the embryo at day 5) ([1]; 5 μM in G-1 and G-2 medium) | Total Mean (average total number of cells in the embryo at day 5) ([1]; 10 μM in G-1 and G-2 medium) | Total Mean (average total number of cells in the embryo at day 5) ([1]; 20 μM in G-1 and G-2 medium) | Total Mean (average total number of cells in the embryo at day 5) ([1]; 80 μM in G-1 and G-2 medium) | optimal dose (dose that resulted in significantly higher cell numbers) [1] [µM] | MCB fluorescence, BSO treated versus non-BSO treated group ([2]; 200 μM BSO, 80 μM MCB) | MCB fluorescence compared to groups treated with MCB only ([2]; pre-treated with 200 μM BSO, then 10 μM/ml or 40 μmol/ml MCB) | Total Mean (average total number of cells in the embryo at day 5) ([1]; 1 μM in G-1 and G-2 medium) | Total Mean (average total number of cells in the embryo at day 5) ([1]; 30 μM in G-1 and G-2 medium) | Total Mean (average total number of cells in the embryo at day 5) ([1]; 1000 μM in G-1 and G-2 medium)
O=C(O)CCCCC1CCSS1 (stereo not drawn) [lipoic acid, α-lipoic acid] | 90.2 | 91.3 | 94 | 34.0 | 5 | – | – | – | – | –
CCCCS(=N)(=O)CCC(N)C(=O)O (centres unmarked) [BSO, buthionine sulfoximine] | – | – | – | – | – | no significant differences | significantly reduced fluorescence | – | – | –
CC(=O)O[C@H](CC(=O)[O-])C[N+](C)(C)C [Acetyl Carnitine, acetyl-L-carnitine] | – | 107.83 | – | – | 10 | – | – | 95.85 | 86.93 | 67.41
CC(=O)N[C@@H](CS)C(=O)O [Acetyl Cysteine, N-acetyl-L-cysteine] | – | 109.29 | – | – | 10 | – | – | 81.92 | 104.38 | 95.17

Reference: patent US11639494B2, “Culture medium” (Vitrolife Sweden AB, priority 2015, dated 2023)
